US10485236B2, “Triazole derivatives, intermediates thereof and their use as fungicides” (Bayer CropScience Aktiengesellschaft, priority 2015, dated 2019)
Marks after values point to notes of the source that are not given here.

Experiments:
Puccinia recondita = test: Example B: in vivo preventive test on Puccinia recondita (brown rust on wheat); details: 264 h, 500 ppm of active ingredient, wheat plants, preventive spray, evaluated 11 days after inoculation, read-out: efficacy
Protocol: (§1) Example B: In Vivo Preventive Test on Puccinia recondita (Brown Rust on Wheat) [table] The active ingredients are made soluble and homogenized in a mixture of Dimethyl sulfoxide/Acetone//Tween® 80 and then diluted in water to the desired concentration. The young plants of wheat are treated by spraying the active ingredient prepared as described above. Control plants are treated only with an aqueous solution of Acetone/Dimethyl sulfoxide/Tween® 80. After 24 hours, the plants are contaminated by spraying the leaves with an aqueous suspension of Puccinia recondita spores. The contaminated wheat plants are incubated for 24 hours at 20° C. and at 100% relative humidity and then for 10 days at 20° C. and at 70-80% relative humidity. The test is evaluated 11 days after the inoculation. 0% means an efficacy which corresponds to that of the control plants while an efficacy of 100% means that no disease is observed.

Sphaerotheca fuliginea [1] = test: Example D: in vivo preventive test on Sphaerotheca fuliginea (powdery mildew on cucurbits); details: Podosphaera fuliginea, 360 h; 500 ppm of active ingredient; gherkin plants, preventive spray; evaluated 15 days after inoculation; read-out: efficacy
Protocol: Example D: In Vivo Preventive Test on Sphaerotheca fuliginea (Powdery Mildew on Cucurbits) [table] The active ingredients are made soluble and homogenized in a mixture of Dimethyl sulfoxide/Acetone//Tween® 80 and then diluted in water to the desired concentration. The young plants of gherkin are treated by spraying the active ingredient prepared as described above. Control plants are treated only with an aqueous solution of Acetone/Dimethyl sulfoxide/Tween® 80. After 24 hours, the plants are contaminated by spraying the leaves with an aqueous suspension of Sphaerotheca fuliginea spores. The contaminated gherkin plants are incubated for 72 hours at 18° C. and at 100% relative humidity and then for 12 days at 20° C. and at 70-80% relative humidity. The test is evaluated 15 days after the inoculation. 0% means an efficacy which corresponds to that of the control plants while an efficacy of 100% means that no disease is observed.

Uromyces appendiculatus = test: Example E: in vivo preventive test on Uromyces appendiculatus (bean rust); details: 264 h, 500 ppm of active ingredient, bean plants, preventive spray, evaluated 11 days after inoculation, read-out: efficacy
Protocol: as §1, with “E:” for “B:”, “Uromyces appendiculatus (Bean Rust)” for “Puccinia recondita (Brown Rust on Wheat)”, “bean” for “wheat”, “Uromyces appendiculatus” for “Puccinia recondita”

[2] = Measurement of LogP values by HPLC on reversed phase columns (EEC directive 79/831 Annex V.A8); format: physicochemical; details: for chromatographic logP: reversed phase HPLC column
Summary of the method: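 Calibrated with straight-chain alkan-2-ones (3–16 carbons) of known LogP, using retention times with linear interpolation between successive alkanones. Where one method gives several LogP values, all are listed, joined by "+". Lambda-max taken from UV spectra (200–400 nm) at chromatographic peak maxima.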

Sphaerotheca fuliginea [3] = test: Example M: in vivo preventive test on Sphaerotheca (cucumbers); comparison of phenoxy-pyridyl compounds vs. known phenoxy-phenyl compounds; details: Podosphaera fuliginea, 168 h, rate of application 10 ppm, evaluated 7 days after inoculation, read-out: Efficacy in %
Protocol: Example M: In Vivo Preventive Test on Sphaerotheca (Cucumbers); Comparison of Phenoxy-pyridyl Compounds According to the Invention Vs. Known Phenoxy-phenyl Compounds [table] To produce a suitable preparation of active compound, 1 part by weight of active compound is mixed with the above stated amounts of solvent and emulsifier, and the concentrate is diluted with water to the desired concentration. To test for preventive activity, young plants are sprayed with the preparation of active compound at the stated rate of application. After the spray coating has dried on, the plants are inoculated with an aqueous spore suspension of Sphaerotheca fuliginea. The plants are then placed in a greenhouse at approximately 23° C. and a relative atmospheric humidity of approximately 70%. The test is evaluated 7 days after the inoculation. 0% means an efficacy which corresponds to that of the untreated control, while an efficacy of 100% means that no disease is observed. [table]

Venturia inaequalis = test: Example H: in vivo preventive test on Venturia test (apples); details: 240 h, 100 ppm of active ingredient, preventive spray, evaluated 10 days after inoculation, read-out: efficacy
Protocol: Example H: In Vivo Preventive Test on Venturia Test (Apples) [table] To produce a suitable preparation of active compound, 1 part by weight of active compound is mixed with the stated amounts of solvent and emulsifier, and the concentrate is diluted with water to the desired concentration. To test for preventive activity, young plants are sprayed with the preparation of active compound at the stated rate of application. After the spray coating has dried on, the plants are inoculated with an aqueous conidia suspension of the causal agent of apple scab (Venturia inaequalis) and then remain for 1 day in an incubation cabinet at approximately 20° C. and a relative atmospheric humidity of 100%. The plants are then placed in a greenhouse at approximately 21° C. and a relative atmospheric humidity of approximately 90%. The test is evaluated 10 days after the inoculation. 0% means an efficacy which corresponds to that of the untreated control, while an efficacy of 100% means that no disease is observed.

Alternaria solani = test: Example F: in vivo preventive test on Alternaria test (tomatoes); details: 72 h, 100 ppm of active ingredient, preventive spray, evaluated 3 days after inoculation, read-out: efficacy
Protocol: Example F: In Vivo Preventive Test on Alternaria Test (Tomatoes) [table] To produce a suitable preparation of active compound, 1 part by weight of active compound is mixed with the stated amounts of solvent and emulsifier, and the concentrate is diluted with water to the desired concentration. To test for preventive activity, young plants are sprayed with the preparation of active compound at the stated rate of application. After the spray coating has dried on, the plants are inoculated with an aqueous spore suspension of Alternaria solani. The plants are then placed in an incubation cabinet at approximately 20° C. and a relative atmospheric humidity of 100%. The test is evaluated 3 days after the inoculation. 0% means an efficacy which corresponds to that of the untreated control while an efficacy of 100% means that no disease is observed.

Septoria tritici = test: Example C: in vivo preventive test on Septoria tritici (leaf spot on wheat); details: Zymoseptoria tritici, 576 h; 500 ppm of active ingredient; wheat plants, preventive spray; evaluated 24 days after inoculation; read-out: efficacy
Protocol: Example C: In Vivo Preventive Test on Septoria tritici (Leaf Spot on Wheat) [table] The active ingredients are made soluble and homogenized in a mixture of Dimethyl sulfoxide/Acetone//Tween® 80 and then diluted in water to the desired concentration. The young plants of wheat are treated by spraying the active ingredient prepared as described above. Control plants are treated only with an aqueous solution of Acetone/Dimethyl sulfoxide/Tween® 80. After 24 hours, the plants are contaminated by spraying the leaves with an aqueous suspension of Septoria tritici spores. The contaminated wheat plants are incubated for 72 hours at 18° C. and at 100% relative humidity and then for 21 days at 20° C. and at 90% relative humidity. The test is evaluated 24 days after the inoculation. 0% means an efficacy which corresponds to that of the control plants while an efficacy of 100% means that no disease is observed.

Botrytis cinerea = test: Example A: in vivo preventive test on Botrytis cinerea (grey mould), gherkin; details: gherkin plants, preventive spray, evaluated 4 to 5 days after inoculation, read-out: efficacy
Protocol: Example A: In Vivo Preventive Test on Botrytis cinerea (Grey Mould) [table] The active ingredients are made soluble and homogenized in a mixture of Dimethyl sulfoxide/Acetone//Tween® 80 and then diluted in water to the desired concentration. The young plants of gherkin are treated by spraying the active ingredient prepared as described above. Control plants are treated only with an aqueous solution of Acetone/Dimethyl sulfoxide/Tween® 80. After 24 hours, the plants are contaminated by spraying the leaves with an aqueous suspension of Botrytis cinerea spores. The contaminated gherkin plants are incubated for 4 to 5 days at 17° C. and at 90% relative humidity. The test is evaluated 4 to 5 days after the inoculation. 0% means an efficacy which corresponds to that of the control plants while an efficacy of 100% means that no disease is observed.

[4] = method [a]: LC-UV, acidic range, 0.1% formic acid in water and acetonitrile as eluent

Structure (SMILES) | pest or weed control at 500 ppm (Puccinia recondita) [%] | pest or weed control at 500 ppm (Sphaerotheca fuliginea [1]) [%] | pest or weed control at 500 ppm (Uromyces appendiculatus) [%] | LogP [2] | further results
O=C(Cn1cncn1)c1cnc(Oc2ccc(Cl)cc2)cc1C(F)(F)F [VII.02, 1-[6-(4-chlorophenoxy)-4-(trifluoromethyl)-3-pyridyl]-2-(1,2,4-triazol-1-yl)ethanone] | 90 to 100 | 90 to 100 | 80 to 89 | – | chromatographic logP ([2]; method [a], compounds of formula (VII), Table 4): 2.92
OC(Cn1cncn1)c1cnc(Oc2ccc(Cl)cc2)cc1C(F)(F)F (stereo not shown) [I.04, 1-[6-(4-chlorophenoxy)-4-(trifluoromethyl)-3-pyridyl]-2-(1,2,4-triazol-1-yl)ethanol] | 90 to 100 | 90 to 100 | 90 to 100 | – | chromatographic logP [2, 4]: 2.68
CC(O)(Cn1cncn1)c1ccc(Oc2ccc(Cl)cc2)cc1C(F)(F)F (stereo not shown) [reference compound] | – | – | – | – | pest or weed control at 10 ppm (Sphaerotheca fuliginea [3]): 30%
Cc1ccc(Oc2ccc(C(C)(O)Cn3cncn3)c(Cl)n2)cc1Cl (stereo not shown) [I.29] | 80 to 89 | 90 to 100 | 90 to 100 | – | pest or weed control at 100 ppm (Venturia inaequalis): 90 to 100%; pest or weed control at 10 ppm (Sphaerotheca fuliginea [3]): 95%; pest or weed control at 100 ppm (Alternaria solani): 90 to 100%; pest or weed control at 500 ppm (Septoria tritici): 90 to 100%; pest or weed control (Botrytis cinerea): 90 to 100%; chromatographic logP [2, 4]: 3
CCCC(=O)c1ccc(Oc2ccc(Cl)cc2)nc1C(F)(F)F [V.46] | – | – | – | 4.59^[a] | –
CCC(=O)c1ccc(Oc2ccc(Cl)cc2)nc1C(F)(F)F [V.45] | – | – | – | 4.20^[a] | –
CC(=O)c1cnc(Oc2ccc(S(F)(F)(F)(F)F)cc2)cc1C(F)(F)F [V.03] | – | – | – | 4.32^[a] | –
CC(=O)c1cnc(Oc2ccc(Cl)cc2)cc1Cl [V.22] | – | – | – | 3.51^[a] | –
